Measured values taken from patent publication US4886821A, “2-pyridinecarbothioamides and pharmaceutical compositions comprising the same useful as anti ulcer agents” (American Home Products Corporation, priority 1987, dated 1989).

How the values were obtained:
[1] = tested on: gastric mucosal lesions produced by ethanol; test: Ethanol induced cytotoxicity (gastric mucosal lesions) in rats; assay type: in vivo, Male Sprague-Dawley rats; conditions: for ED50: Rattus norvegicus, po; for % Inhibition: oral, inhibition of lesion formation vs control
Experimental: The purpose of this assay is to evaluate the effectiveness of the compounds of the present invention in preventing the formation of gastric mucosal lesions produced by ethanol. The assay is based on A. Robert, et al: Gastroenterology, 77: 433-443, 1979.
Male Sprague-Dawley rats weighing between 120-150 grams were fasted for 24 hours prior to the experiment (water ad libitum). At least two hours before dosing, the animals were placed in individual cages with wire grid bottoms and denied access to water.
Ethanol was administered orally at 1 mL per animal. The compounds of the present invention were dissolved in water or suspended in water with 0.5% carboxymethylcellulose and administered orally at a dose based on an appropriate standard giving ED50 to ED75 response of cytoprotective activity.
The rats were randomly divided into groups of equal number, ordinarily 10 to a group. The rats were weighed and the individual weights were recorded. Exactly 1 hour (4 hours in the case of Example 5) prior to the administration of ethanol, the screening group was treated with the compounds of the present invention, and the control group with the vehicle. One hour after administering the ethanol the animals were sacrificed by cervical dislocation. The stomachs were removed, cut along the greater curvature and cleansed of all debris with tap water. The stomachs were set aside and kept moist with saline until the lesions were scored.
Macroscopic lesions on the gastric mucosa were numerically graded. The final grade assigned a stomach was the sum of all the grades.
Streaks longer than 6 mm are graded in multiples of 2 mm.
The degree of cytotoxicity occuring in each group is represented as the mean±S.E.M.
The mean of each treatment group was compared to the control group and expressed as the % inhibition of lesion formation.

[2] = tested on: ethanol induced ulcer; conditions: Robert et al., Scand. J. Gastroenterol. 1984; cited from earlier work
[3] = tested on: stress induced ulcers; test: Stress-induced gastric ulcers in rats; assay type: in vivo, Male rats; conditions: Rattus norvegicus, po; orally or parenterally, usually 15 to 45 minutes prior to stress; restraint at 4-5 °C for 3 hours, sodium taurocholate p.o.; read-out: Stress Induced Ulcer ED50
Experimental: The purpose of this assay is to evaluate the effectiveness of the compounds of the present invention in preventing stress induced ulcers.
Male rats (280-380 g) were fasted for 18 hours (water available ad libitum) prior to use in experiments. Eight to twelve rats were used per group.
Drug solutions or suspensions were prepared in physiological saline solution. Suspensions were prepared with the aid of 0.5% carboxymethylcellulose in physiological saline solution. Drugs were administered orally or parenterally at predetermined intervals (usually 15 to 45 minutes) prior to stress.
This test procedure is according to the method of Senay et al., Proc. Soc. Exp. Biol. Med. 124, 1221 (1967), modified to produce a more consistent ulcer incidence. After drug administration, the rats were immobilized in metallic restrainers and placed in a cold room at 4°-5° C. for 3 hours before they were killed by cervical dislocation. Each rat was given 20 mg of sodium taurocholate p.o. immediately before placing it in the restrainer. After killing the rats, the stomachs were excised and examined. Macroscopic ulcers were subjectively assigned a grade from 1 to 3 on the basis of increasing size. The number of ulcers in each size category was determined and multiplied by the respective grade; the addition of the resultant values gave the cumulative ulcer score. The average cumulative ulcer score of each treatment group was compared to that of the control group and the percent inhibition of ulcer formation as calculated. When the responses obtained were directly proportional to the doses employed, ED50 values were determined from the dose-response curves obtained.

[4] = 10 mg/kg, 1 hour prior to ethanol

Q: With `Fc1ccc(F)c(NC(=S)c2ccccn2)c1` [Example 12, N--(2,5-difluorophenyl)-2-pyridinecarbothioamide] as the compound, how does the ED50 [1] read?
A: 6.2 mg/kg

Q: For `CN(C(=S)c1ccccn1)c1cccc(F)c1` [Example 6, N-(3-Fluorophenyl)-N-methyl-2-pyridinecarbothioamide], which “% Inhibition” value [1, 4] is on record?
A: 31%

Q: Which “protection in ethanol induced ulcer model” value [2] does the source give for `CN/C(=N/CCSCc1nc[nH]c1C)NC#N` [cimetidine] here?
A: do not protect in this model

Q: With `CC(C)[N+](C)(CCOC(=O)C1c2ccccc2Oc2ccccc21)C(C)C` [propantheline bromide] as the compound, how does the “protection in ethanol induced ulcer model” value [2] read?
A: do not protect in this model

Q: Which ED50 [3] does the source give for `Fc1cccc(NC(=S)c2ccccn2)c1F` [Example 10, N--(2,3-difluorophenyl)-2-pyridinecarbothioamide] here?
A: 0.9 mg/kg

Q: And the ED50 [1]?
A: 1 mg/kg

Q: What does the source list for `Fc1cccc(F)c1NC(=S)c1ccccn1` [Example 9, N-(2,6-Difluorophenyl)-2-pyridinecarbothioamide]?
A: ED50 [3]: 1.8 mg/kg; ED50 [1]: 0.38 mg/kg

Q: Which “% Inhibition” value ([1]; 100 mg/kg, 4 hours prior to ethanol) does the source give for `Fc1ccccc1NC(=S)c1ccccn1` [Example 5, N-(2-Fluorophenyl)-2-pyridinecarbothioamide] here?
A: 69%

Q: With `Fc1ccc(NC(=S)c2ccccn2)cc1` [Example 3, N-(4-Fluorophenyl)-2-pyridinecarbothioamide] as the compound, how does the ED50 [3] read?
A: 3.8 mg/kg

Q: What about the ED50 [1] of the same compound?
A: 2.5 mg/kg

Q: Which “% Inhibition” value [1, 4] does the source give for `CCN(C(=S)c1ccccn1)c1cc(F)cc(F)c1` [Example 8, N-(3,5-Difluorophenyl)-N-ethyl-2-pyridinecarbothioamide] here?
A: 13%

Q: Which “% Inhibition” value ([1]; 25 mg/kg, 1 hour prior to ethanol) does the source give for `CN(C(=S)c1ccccn1)c1cc(F)cc(F)c1` [Example 7, N-(3,5-Difluorophenyl)-N-methyl-2-pyridinecarbothioamide] here?
A: 40%

Q: Which ED50 [3] does the source give for `Fc1ccc(NC(=S)c2ccccn2)c(F)c1` [Example 2, N-(2,4-Difluorophenyl)-2-pyridinecarbothioamide] here?
A: 38 mg/kg

Q: And the ED50 [1]?
A: 4.8 mg/kg

Q: With `Fc1cccc(NC(=S)c2ccccn2)c1` [Example 4, N-(3-Fluorophenyl)-2-pyridinecarbothioamide] as the compound, how does the ED50 [1] read?
A: 1 mg/kg
